{"source": "patent US9682118B1", "about": "“Inhibition of metastasis by cell penetrating peptides” (University of Mississippi Medical Center, priority 2006, dated 2017)", "system": "SKOV-3 cells", "experiment": "Boyden chamber migration assay", "type": "cell-based", "conditions": "SKOV-3, 8 μm pores, 24 h", "description": "FIG. 14 is data related to a Boyden chamber assay. […] Cells were washed, fixed, stained with hematoxylin and 4 random fields were counted at 20× magnification. FIG. 14B is a set of images after cells were later incubated with Hoechst dye for 10 min. and images were obtained at 10× magnification.\nIn order to confirm the role of CPP-ELPs in preventing migration of SKOV-3 cells, a boyden chamber assay was performed (35). This assay involves a membrane with pore size of 8 μm. SKOV-3 cells are plated on one side of the membrane, and a chemoattractant (FBS) is placed on the opposite side of the membrane. The cells are allowed to migrate trough the pores toward the chemoattractant for […], and the cells which penetrated the membrane are quantified by cell counting and independently by Hoechst staining and fluorescence microscopy. […] Serum starvation of cells overnight ruled out the fact that proliferation was a contributing factor in this assay."}
{"substance": "Tat (YGRKKRRQRRR; Tat CPP) [Tat peptide]", "values": [{"measurement": "migration across the membrane toward FBS", "value": "migrated across the membrane"}]}
